Here are results for 2 compounds from patent US20230099264A1, “Biomarker for Predicting Prognosis of Radiotherapy for Lung Cancer” (Korea Institute of Radiological & Medical Sciences, priority 2020, published 2023).

Type in all cases: cell-based, Human
The subject of one test is RIP1. Nature of the test: Western blot of RIP1 expression in IR-treated A549 cells. Particulars: 24 hours. How it is done: In addition, lung cancer cell line A549 (control) and IR-treated lung cancer cell line A549 (IR) were seeded at 1×10^6 in a 60π dish and treated with EGFR inhibitor (EGFR inh), Src inhibitor (Src inh), and STAT3 inhibitor (STAT3 inh). The cells were treated by IR (IR-EGFR inh, IR-Src inh, and IR-STAT3 inh). The cells were harvested 24 hours later, and protein was extracted.
(§1) In addition, lung cancer cell line A549 (control) and IR-treated lung cancer cell line A549 (IR) were seeded at 1×10^6 in a 60π dish and treated with necrostatin. The cells were harvested 24 hours later, and protein was extracted. Then, Western blot was performed to confirm the expressions of RIP1, vimentin, MMP2, MMP9, p-EGFR, EGFR, β-action, p-Src, Src, p-STAT3, and STAT3, and the results are shown in FIGS. 4D and 4E.
In addition, lung cancer cell line A549 (control) and IR-treated lung cancer cell line A549 (IR) were seeded with 1×10^6 in a 60π dish and were treated with an NF-κB inhibitor. The cells were harvested 24 hours later, and protein was extracted. Then, Western blot was performed to confirm the expressions of RIP1, vimentin, MMP2, MMP9, p-IκBα, p-P65, p50, and p105.
Background: Immunoblotting shows a protein as a band on a membrane.

Test [1] relates to vimentin, MMP2, MMP9, p-EGFR, p-Src, p-STAT3. Nature of the test: Western blot of EMT-related and signaling proteins in IR-treated A549 cells. To be noted: 24 hours. As to the method:
In addition, lung cancer cell line A549 (control) and IR-treated lung cancer cell line A549 (IR) were seeded at 1×10^6 in a 60π dish and treated with EGFR inhibitor (EGFR inh), Src inhibitor (Src inh), and STAT3 inhibitor (STAT3 inh). The cells were treated by IR (IR-EGFR inh, IR-Src inh, and IR-STAT3 inh). The cells were harvested 24 hours later, and protein was extracted. Then, Western blot was performed to confirm the expressions of RIP1, vimentin, MMP2, MMP9, p-Src, Src, p-STAT3, STAT3, and β-action, and the results are shown in FIG. 3B (EGFR inhibitor), FIG. 3C (Src inhibitor), and FIG. 3D (STAT3 inhibitor).
as §1
In addition, the same experiment as the above experiment was performed by treating a commercially available siRNA capable of inhibiting the expression of RIP1, and the results are shown in FIGS. 5A-5D.

The subject of test [2] is IR-treated lung cancer cell line A549. Put plainly: Transwell invasion and migration assay of IR-treated lung cancer cells. To be noted: IR (10 Gy)-treated A549, transwell, 24 hours. As to the method:
Lung cancer cells (A549) (5×10^5) were seeded in 60 mm dishes and cultured overnight, followed by IR exposure (10 Gy) using a 137 Cs radiation source (Atomic Energy of Canada, Ltd., Mississauga, ON, Canada) to obtain IR-treated lung cancer cell lines (A549 IR (10 Gy)).
In order to analyze the cell invasion of lung cancer cells by IR treatment, Matrigel-coated transwells (Corning N. Y., USA) were used, and in order to analyze cell migration, collagen-coated transwells (Corning, N.Y., USA) were used.
Lung cancer cell line A549 (control) and IR-treated lung cancer cell line A549 (IR) were placed in an upper chamber by 5×10^4 in a Matrigel-coated transwell, and treated with EGFR, Scr, and STAT3 inhibitors, respectively. Then, 10% FBS medium was put into the lower chamber, and cells passing through the transwell were stained after 24 hours to confirm cell invasion, and the results are shown in […].
Lung cancer cell line A549 (control) and IR-treated lung cancer cell line A549 (IR) were placed in an upper chamber by 5×10^4 in a Matrigel-coated transwell and treated with necrostatin. Then, 10% FBS medium was put into the lower chamber, and cells passing through the transwell were stained after 24 hours to confirm cell invasion, and the results are shown in FIGS. 4A and 4B. […]

Test [3] shares this test system. Put plainly: Cell viability of IR-treated lung cancer cells under inhibitor treatment.
Test [4] relates to vimentin, MMP-2/9, E-cadherin. Nature of the test: Immunoblot analysis of EMT markers with or without IL-Ra under IR irradiation. As to the method: Immunoblot analysis of samples treated with or without IL-Ra (an antagonist of IL-1β) under IR irradiation conditions was performed, and the results are shown in FIG. 8A.

With `CN1C(=O)C(Cc2c[nH]c3ccccc23)NC1=S` (stereo not drawn) [necrostatin, Necrostatin-1], the RIP1 expression entry in the test on RIP1 was “decreased expression”. In addition, the “activities/expression of vimentin, MMP2, MMP9, p-EGFR, p-Src, p-STAT3 (EMT-related factors)” value in test [1] is “decreased activities”. Further, the “cell invasion and cell migration” value in test [2] is “reduced”. For the same compound, the “cell viability compared with lung cancer cell line not treated with radiation (control)” value in test [3] was “almost similar”.

Regarding IL-Ra: an antagonist of IL-1β, the “IR-induced increase of vimentin and MMP-2/9 expressions and decrease of E-cadherin” value in test [4] was “inhibiting this action”. In addition, the “cell invasion and cell migration” value in test [2] is given as “almost completely blocked”.
